Laboratory results published in ChEMBL document CHEMBL1201862, “PubChem BioAssay data set” (2004).
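Grown in 96-well plates, cells were treated for 48 hours with each compound at five concentrations. Insufficient inhibition: endpoint recorded as highest concentration tested. GI50 = concentration required for 50% inhibition of growth.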 Active and inactive are the calls of the source. No stated cut-off is given here; in the data, active = GI50 up to about 1.1 µM and inactive = higher.

Legend:
Experiment in all cases: DTP human tumour cell line panel, 48 h
786-0 = system: 786-0
BT-549 = system: BT-549
DU-145 = system: DU-145
HOP-92 = system: HOP-92
IGROV-1 = system: IGROV-1
MOLT-4 = system: MOLT-4
Malme-3M = system: Malme-3M
NCI-H226 = system: NCI-H226
NCI-H23 = system: NCI-H23
NCI-H522 = system: NCI-H522
OVCAR-4 = system: OVCAR-4
RPMI-8226 = system: RPMI-8226
RXF 393 = system: RXF 393
SK-MEL-28 = system: SK-MEL-28
SK-MEL-5 = system: SK-MEL-5
SK-OV-3 = system: SK-OV-3
SW-620 = system: SW-620
TK-10 = system: TK-10
MDA-N = system: MDA-N

N#C[C@H]1C(=O)C(c2nc3ccccc3[nH]2)S[C@H]1c1ccccc1 (some centres not stated)
GI50 (786-0): 19.1 µM (inactive) | GI50 (BT-549): 26.5 µM (inactive) | GI50 (DU-145): 45.1 µM (inactive) | GI50 (HOP-92): 25.5 µM (inactive) | GI50 (IGROV-1): 26.9 µM (inactive) | GI50 (MOLT-4): 33.7 µM (inactive) | GI50 (Malme-3M): 29.9 µM (inactive) | GI50 (NCI-H226): 85.3 µM (inactive) | GI50 (NCI-H23): 27.5 µM (inactive) | GI50 (NCI-H522): 21.2 µM (inactive) | GI50 (OVCAR-4): 34.2 µM (inactive) | GI50 (RPMI-8226): 25.5 µM (inactive) | GI50 (RXF 393): 19.1 µM (inactive) | GI50 (SK-MEL-28): 54.8 µM (inactive) | GI50 (SK-MEL-5): 25.2 µM (inactive) | GI50 (SK-OV-3): 47.1 µM (inactive) | GI50 (SW-620): 32.5 µM (inactive) | GI50 (TK-10): 95.9 µM (inactive)

COC(=O)CCc1ccc2c(c1)C(=O)CC2
GI50 (786-0): > 100 µM (inactive) | GI50 (DU-145): > 100 µM (inactive) | GI50 (HOP-92): > 100 µM (inactive) | GI50 (IGROV-1): > 100 µM (inactive) | GI50 (MDA-N): > 100 µM (inactive) | GI50 (MOLT-4): > 100 µM (inactive) | GI50 (Malme-3M): > 100 µM (inactive) | GI50 (NCI-H23): > 100 µM (inactive) | GI50 (NCI-H522): > 100 µM (inactive) | GI50 (OVCAR-4): > 100 µM (inactive) | GI50 (RPMI-8226): > 100 µM (inactive) | GI50 (RXF 393): > 100 µM (inactive) | GI50 (SK-MEL-28): > 100 µM (inactive) | GI50 (SK-MEL-5): > 100 µM (inactive) | GI50 (SK-OV-3): > 100 µM (inactive) | GI50 (SW-620): > 100 µM (inactive) | GI50 (TK-10): > 100 µM (inactive)

[O-][S+](CC1(O)CCCCC1)c1ccccc1 (configuration not stated)
GI50 (786-0): > 100 µM (inactive) | GI50 (BT-549): > 100 µM (inactive) | GI50 (DU-145): > 100 µM (inactive) | GI50 (IGROV-1): > 100 µM (inactive) | GI50 (MOLT-4): > 100 µM (inactive) | GI50 (Malme-3M): > 100 µM (inactive) | GI50 (NCI-H226): > 100 µM (inactive) | GI50 (NCI-H23): > 100 µM (inactive) | GI50 (NCI-H522): > 100 µM (inactive) | GI50 (OVCAR-4): > 100 µM (inactive) | GI50 (RPMI-8226): < 0.01 µM (active) | GI50 (RXF 393): > 100 µM (inactive) | GI50 (SK-MEL-28): > 100 µM (inactive) | GI50 (SK-MEL-5): > 100 µM (inactive) | GI50 (SK-OV-3): > 100 µM (inactive) | GI50 (SW-620): > 100 µM (inactive) | GI50 (TK-10): > 100 µM (inactive)

Cc1ccc(S(=O)(=O)N(CC(O)COc2ccccc2)c2c(F)cccc2F)cc1 (configuration not stated)
GI50 (786-0): 20.7 µM (inactive) | GI50 (DU-145): 24.9 µM (inactive) | GI50 (HOP-92): 0.114 µM (active) | GI50 (MDA-N): 15.8 µM (inactive) | GI50 (MOLT-4): 28.3 µM (inactive) | GI50 (Malme-3M): 21 µM (inactive) | GI50 (NCI-H226): 21.9 µM (inactive) | GI50 (NCI-H23): 18.5 µM (inactive) | GI50 (OVCAR-4): 13.2 µM (inactive) | GI50 (RPMI-8226): 14.4 µM (inactive) | GI50 (RXF 393): 10.5 µM (inactive) | GI50 (SK-MEL-28): 16.3 µM (inactive) | GI50 (SK-MEL-5): 13.8 µM (inactive) | GI50 (SK-OV-3): 18.5 µM (inactive) | GI50 (SW-620): 23 µM (inactive) | GI50 (TK-10): 33.7 µM (inactive)

O=c1oc2c/c(=C\c3ccccn3)c(=O)c3cccc1c3-2
GI50 (786-0): 14.6 µM (inactive) | GI50 (DU-145): > 100 µM (inactive) | GI50 (HOP-92): > 100 µM (inactive) | GI50 (IGROV-1): 90.8 µM (inactive) | GI50 (MDA-N): > 100 µM (inactive) | GI50 (MOLT-4): 49.3 µM (inactive) | GI50 (Malme-3M): 72.3 µM (inactive) | GI50 (NCI-H226): 28.3 µM (inactive) | GI50 (NCI-H23): > 100 µM (inactive) | GI50 (NCI-H522): 16.1 µM (inactive) | GI50 (OVCAR-4): > 100 µM (inactive) | GI50 (RPMI-8226): 28.6 µM (inactive) | GI50 (RXF 393): 5.56 µM (inactive) | GI50 (SK-MEL-28): > 100 µM (inactive) | GI50 (SK-MEL-5): > 100 µM (inactive) | GI50 (SK-OV-3): > 100 µM (inactive) | GI50 (SW-620): > 100 µM (inactive) | GI50 (TK-10): 66.8 µM (inactive)

COc1ccc(OC)c([N+](=O)[O-])c1-c1nc2sc(C)c(C)n2c1/C=N/N=C(N)N
GI50 (786-0): > 100 µM (inactive) | GI50 (BT-549): 25.9 µM (inactive) | GI50 (DU-145): > 100 µM (inactive) | GI50 (HOP-92): 61 µM (inactive) | GI50 (IGROV-1): 27.3 µM (inactive) | GI50 (MOLT-4): 13.9 µM (inactive) | GI50 (Malme-3M): 60.7 µM (inactive) | GI50 (NCI-H226): > 100 µM (inactive) | GI50 (NCI-H23): > 100 µM (inactive) | GI50 (NCI-H522): 41.8 µM (inactive) | GI50 (OVCAR-4): 95.7 µM (inactive) | GI50 (RPMI-8226): 32.4 µM (inactive) | GI50 (RXF 393): > 100 µM (inactive) | GI50 (SK-MEL-28): 54.5 µM (inactive) | GI50 (SK-MEL-5): 34.5 µM (inactive) | GI50 (SW-620): 66.4 µM (inactive) | GI50 (TK-10): > 100 µM (inactive)

C[C@]12CCC(=O)O[C@H]1CCCCO2
GI50 (786-0): > 100 µM (inactive) | GI50 (DU-145): > 100 µM (inactive) | GI50 (HOP-92): 28.1 µM (inactive) | GI50 (IGROV-1): > 100 µM (inactive) | GI50 (MDA-N): > 100 µM (inactive) | GI50 (MOLT-4): > 100 µM (inactive) | GI50 (Malme-3M): > 100 µM (inactive) | GI50 (NCI-H226): > 100 µM (inactive) | GI50 (NCI-H522): > 100 µM (inactive) | GI50 (RXF 393): > 100 µM (inactive) | GI50 (SK-MEL-28): > 100 µM (inactive) | GI50 (SK-MEL-5): > 100 µM (inactive) | GI50 (SK-OV-3): > 100 µM (inactive) | GI50 (SW-620): > 100 µM (inactive) | GI50 (TK-10): > 100 µM (inactive)

O=C(NCCCN(CCCCN(CCCNC(=O)C(F)(F)F)Cc1ccc2ccccc2c1)Cc1ccc2ccccc2c1)C(F)(F)F
GI50 (786-0): > 100 µM (inactive) | GI50 (BT-549): 6.22 µM (inactive) | GI50 (DU-145): > 100 µM (inactive) | GI50 (HOP-92): > 100 µM (inactive) | GI50 (IGROV-1): 7.87 µM (inactive) | GI50 (MOLT-4): 5.28 µM (inactive) | GI50 (NCI-H226): > 100 µM (inactive) | GI50 (NCI-H522): 8.93 µM (inactive) | GI50 (OVCAR-4): 2.62 µM (inactive) | GI50 (RPMI-8226): 2.81 µM (inactive) | GI50 (RXF 393): 3.77 µM (inactive) | GI50 (SK-MEL-28): 2.32 µM (inactive) | GI50 (SK-MEL-5): 1.75 µM (inactive) | GI50 (SK-OV-3): > 100 µM (inactive) | GI50 (SW-620): > 100 µM (inactive) | GI50 (TK-10): > 100 µM (inactive)

CN(C)C(=S)/N=c1\ss/c(=N\C(=S)N(C)C)n1-c1ccc(Cl)c(Cl)c1
GI50 (786-0): > 100 µM (inactive) | GI50 (IGROV-1): > 100 µM (inactive) | GI50 (MOLT-4): > 100 µM (inactive) | GI50 (Malme-3M): > 100 µM (inactive) | GI50 (NCI-H226): > 100 µM (inactive) | GI50 (NCI-H23): > 100 µM (inactive) | GI50 (NCI-H522): > 100 µM (inactive) | GI50 (OVCAR-4): > 100 µM (inactive) | GI50 (RPMI-8226): > 100 µM (inactive) | GI50 (RXF 393): 89.9 µM (inactive) | GI50 (SK-MEL-28): > 100 µM (inactive) | GI50 (SK-MEL-5): > 100 µM (inactive) | GI50 (SK-OV-3): > 100 µM (inactive) | GI50 (SW-620): > 100 µM (inactive) | GI50 (TK-10): > 100 µM (inactive)

Brc1ccc2c(-c3csc(-c4c[nH]c5ccccc45)n3)c[nH]c2c1
GI50 (786-0): 17.9 µM (inactive) | GI50 (BT-549): 18.3 µM (inactive) | GI50 (DU-145): 18.8 µM (inactive) | GI50 (HOP-92): 15.6 µM (inactive) | GI50 (IGROV-1): 13 µM (inactive) | GI50 (Malme-3M): 16.9 µM (inactive) | GI50 (NCI-H226): 14.5 µM (inactive) | GI50 (NCI-H522): 17.3 µM (inactive) | GI50 (OVCAR-4): 16 µM (inactive) | GI50 (RPMI-8226): 19.4 µM (inactive) | GI50 (RXF 393): 22.4 µM (inactive) | GI50 (SK-MEL-28): 14.9 µM (inactive) | GI50 (SK-MEL-5): 15.3 µM (inactive) | GI50 (SK-OV-3): 18.9 µM (inactive) | GI50 (SW-620): 16.5 µM (inactive) | GI50 (TK-10): 12.4 µM (inactive)

OC(CCNCc1ccccc1)c1ccc2ccccc2c1 (configuration not stated)
GI50 (786-0): 20.1 µM (inactive) | GI50 (DU-145): 18.3 µM (inactive) | GI50 (IGROV-1): 16 µM (inactive) | GI50 (MOLT-4): 31.1 µM (inactive) | GI50 (Malme-3M): 22 µM (inactive) | GI50 (NCI-H226): 23.8 µM (inactive) | GI50 (NCI-H23): 30 µM (inactive) | GI50 (NCI-H522): 18.7 µM (inactive) | GI50 (OVCAR-4): 28.4 µM (inactive) | GI50 (RPMI-8226): 23.8 µM (inactive) | GI50 (RXF 393): 16.7 µM (inactive) | GI50 (SK-MEL-28): 18.4 µM (inactive) | GI50 (SK-MEL-5): 17.2 µM (inactive) | GI50 (SW-620): 19.7 µM (inactive) | GI50 (TK-10): 18.3 µM (inactive)

Cc1cc(N(C)c2ccccc2)nc(N(C)c2ccccc2)n1
GI50 (786-0): 41.3 µM (inactive) | GI50 (DU-145): 92.3 µM (inactive) | GI50 (IGROV-1): 39 µM (inactive) | GI50 (MDA-N): 52.4 µM (inactive) | GI50 (MOLT-4): 33.7 µM (inactive) | GI50 (Malme-3M): 26.9 µM (inactive) | GI50 (NCI-H226): 34.6 µM (inactive) | GI50 (NCI-H23): 36.7 µM (inactive) | GI50 (NCI-H522): 36.9 µM (inactive) | GI50 (OVCAR-4): > 100 µM (inactive) | GI50 (RPMI-8226): 28.8 µM (inactive) | GI50 (RXF 393): 22 µM (inactive) | GI50 (SK-MEL-28): 35.5 µM (inactive) | GI50 (SK-MEL-5): 27.1 µM (inactive) | GI50 (SK-OV-3): > 100 µM (inactive) | GI50 (SW-620): 43.1 µM (inactive) | GI50 (TK-10): 55.7 µM (inactive)
